This is an account of results in PubChem BioAssay (NCI).

The structures appear in SMILES notation. “And” between values parts separate entries of the source, which are not always exact repeats. Identical values can stand only once.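 Each compound was tested at five concentrations against cells in 96-well plates for 48 hours. GI50 is the concentration that inhibits growth by half. TGI: total growth inhibition.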

What all share (assay): NCI tumour cell line growth inhibition, 48 h
For assay [1], the system named is A498 renal.
The test system of assay [2] is IGROV1 ovarian.
Assay [3] concerns K-562 leukemia.
The subject of assay [4] is OVCAR-3 ovarian.
Assay [5] concerns OVCAR-8 ovarian.
Assay [6] deals with SF-268 CNS.
Assay [7] has as its system SN12C renal.
The test system of assay [8] is SR leukemia.
The test system of assay [9] is SW-620 colon.
Assay [10] concerns T-47D breast.

With `CC(C)OC(=S)Nc1ccc(Cl)c(/C=N/OC(C)(C)C)c1`, the TGI amounted to 28200 nM in assay [1]; 36600 nM in assay [2]; 43000 nM in [3]; 33600 nM in assay [4]; 17000 nM in assay [5]; 40400 nM in [6]. The TGI worked out at 31600 nM in assay [7], 39300 nM in [8], 32000 nM in [9] and 38700 nM in assay [10].

On to `COc1ccc(-c2cncn2-c2cc(OC)c(OC)c(OC)c2)cc1`, for which the GI50 was 103 nM in [1]; below 15.7 nM in assay [2]; 443 nM in assay [3]; 28.2 nM in assay [4]; 1070 nM in assay [5]; 2010 nM in assay [6]. Besides, the GI50 in [7] is 527 nM; in assay [8] it was 2090 nM; in assay [9], 58.5 nM; in assay [10], 3120 nM. Also, the TGI is 17500 nM in [1]; 1530 nM in [2]; above 100000 nM in assay [3]; 64.1 nM in [4]; above 51300 nM in assay [5]; 59700 nM in assay [6]. The TGI in [7] is above 100000 nM; in [8], 6590 nM; in [9] it was above 100000 nM; in [10], above 100000 nM.

For the molecule `COc1ccc(-c2cc3c(C)nc(N)nc3n(C3CCC(OCCO)CC3)c2=O)cn1` (stereo not given), the GI50 in [1] was 21.1 nM; in [2], 21 nM and 19.9 nM; in assay [3], 593 nM and 360 nM; in assay [4], 61.4 nM and 39.5 nM; in [5], 141 nM and 128 nM; in [6] it was 78.4 nM and 77.9 nM. Further, the GI50 in assay [7] is 79 nM and 75.8 nM; in [8] it was 257 nM and 80.5 nM; in [9] it was 181 nM and 162 nM; in assay [10] it was 13.1 nM and 21.1 nM. Also, the TGI is 92.5 nM in assay [1]; 98.3 nM and 92 nM in assay [2]; above 100000 nM in [3]; 486 nM and 427 nM in assay [4]; 2360 nM and 1410 nM in [5]; > 4350 nM and 5490 nM in assay [6]. Also, the TGI was above 100000 nM in assay [7]; > 10000 nM and 1440 nM in [8]; above 10000 nM in assay [9]; 73.5 nM and 147 nM in [10].

With `CSc1nc2nc3c(nc2c(=O)n1C)C(=O)c1ccccc1C3=O`, the GI50 in assay [1] was 186 nM; in assay [2], 271 nM; in [3] it was 272 nM; in assay [4], 37.8 nM; in [5] it was 225 nM; in [6], 294 nM. Moreover, the GI50 in assay [7] is 157 nM; in [8] it was 332 nM; in assay [9] it was 252 nM; in assay [10], 226 nM. The TGI in [1] is 768 nM; in [2], 778 nM; in [3], 1320 nM; in assay [4], 210 nM; in [5], 834 nM; in assay [6] it was 1090 nM. Besides, the TGI was 307 nM in assay [7], above 100000 nM in assay [8], 738 nM in [9] and 843 nM in assay [10].

`CN=C1C=CC(=C(c2ccc(N(C)C)cc2)c2ccc(N(C)C)cc2)C=C1`: the GI50 was 193 nM in assay [1]; 420 nM in assay [2]; 78.4 nM in [3]; 295 nM in assay [4]; 250 nM in [6]; 163 nM in [7]. Further, the figures for the GI50 in assay [8], in [9] and in [10] were 206 nM, 185 nM and 292 nM, respectively. Moreover, the TGI worked out at 734 nM in assay [1]; 6380 nM in assay [2]; 1100 nM in [3]; 936 nM in assay [4]; 1540 nM in assay [6]; 3040 nM in assay [7]. The TGI in assay [8] was 551 nM; in assay [9], 1350 nM; in assay [10], 2100 nM.

Turning to `Nc1nc2c(C(=O)NCc3cccs3)nnn2c2cccc(Cl)c12`, the TGI in [1], in [2], in assay [3], in assay [4], in [5] and in assay [6] was above 100000 nM each time. The TGI in assay [7] is above 100000 nM; in assay [8], above 100000 nM; in [9] it was above 100000 nM; in assay [10], 50700 nM.

With `COc1ccccc1S(=O)(=O)Nc1ccc2c3c(cc(CCC(=O)NCCCCNc4cccc5c4C(=O)N(C4CCC(=O)NC4=O)C5=O)cc13)C(=O)N2C` (stereo not given), the GI50 in [1] is 659 nM; in [2], 140 nM; in assay [3], 443 nM; in [4], 2210 nM; in assay [5], 346 nM; in assay [6], 317 nM. Moreover, the GI50 in [7] is 462 nM; in assay [8], 248 nM; in assay [9] it was 240 nM; in [10] it was 34.3 nM. Moreover, the TGI was 6080 nM in [1]; above 100000 nM in assay [2]; above 100000 nM in [3]; above 100000 nM in assay [4]; above 100000 nM in assay [5]; above 100000 nM in assay [6]. Besides, the TGI in [7] was above 100000 nM; in [8], above 52500 nM; in assay [9], above 100000 nM.

For the molecule `CCCc1cc(=O)n2c(C(=O)Nc3ccc(F)cc3)c(C(=O)Nc3ccc(F)cc3)sc2n1`, the GI50 in assay [1] is 46400 nM; in assay [2] it was 30300 nM; in assay [3], 10600 nM; in assay [4] it was 22900 nM; in assay [5], 4570 nM; in [6], 18800 nM. In addition, the GI50 in [8] was 31300 nM; in [9], 56500 nM; in [10], 87000 nM. The TGI is 137000 nM in assay [1]; 148000 nM in [2]; above 160000 nM in assay [3]; 49800 nM in [4]; 28000 nM in assay [5]; 95600 nM in assay [6]. In addition, the TGI is 88100 nM in assay [8], above 160000 nM in assay [9] and above 160000 nM in assay [10].
